Measurements reported in ChEMBL document CHEMBL1201862, “PubChem BioAssay data set” (2004).
Active and inactive are the calls of the source.

Tests used:
Mucolipin-3 = Mucolipin-3 (Homo sapiens, UniProt Q8TDD5); test: Dose response cell-based high-throughput screening assay for agonists of the transient receptor potential channel ML3 (TRPML3). [Related pubchem assays: 1526, 1424, 1448 ]; type: functional
[1] = biological target: T1, Heat shock factor protein 1 (Mus musculus, UniProt P38532); test: HSF1 potentiators in luciferase reporter cells, confirmation, cell-based, NIH3T3, luminescence, dose retest (AID 435004); type: functional;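 note: stress induced by proteasome inhibitor MG132 added 30 min after compound; luciferase reporter driven by HSF1 response element in NIH3T3 cells; actives raise luminescence as potentiators of the MG132 stress response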
T1 sequence (P38532 whole entry): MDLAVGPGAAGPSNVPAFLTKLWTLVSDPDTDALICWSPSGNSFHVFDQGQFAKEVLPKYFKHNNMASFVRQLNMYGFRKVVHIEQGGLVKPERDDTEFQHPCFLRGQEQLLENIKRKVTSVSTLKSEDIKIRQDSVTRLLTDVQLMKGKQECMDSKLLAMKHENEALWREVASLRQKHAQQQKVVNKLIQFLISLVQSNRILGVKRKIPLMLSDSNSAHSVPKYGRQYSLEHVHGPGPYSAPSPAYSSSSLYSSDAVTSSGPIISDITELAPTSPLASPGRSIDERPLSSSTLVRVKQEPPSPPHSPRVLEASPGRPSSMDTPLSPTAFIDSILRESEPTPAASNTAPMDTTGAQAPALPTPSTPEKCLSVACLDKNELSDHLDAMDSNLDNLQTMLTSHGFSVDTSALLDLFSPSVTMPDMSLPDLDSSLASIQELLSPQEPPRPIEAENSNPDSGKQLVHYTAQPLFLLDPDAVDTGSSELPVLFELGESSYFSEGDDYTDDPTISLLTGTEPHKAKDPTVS

[2] = biological target: T2, Low molecular weight phosphotyrosine protein phosphatase (Homo sapiens, UniProt P24666); type: functional; details: read-out: IC50_Mean
T2 sequence (P24666 whole entry): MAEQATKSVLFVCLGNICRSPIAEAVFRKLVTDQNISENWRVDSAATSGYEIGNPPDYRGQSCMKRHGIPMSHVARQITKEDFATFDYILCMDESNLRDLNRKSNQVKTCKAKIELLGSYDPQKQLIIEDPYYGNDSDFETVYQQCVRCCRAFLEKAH

Ion channel NompC = Ion channel NompC (Danio rerio, UniProt Q7T1G6); test: Fluorescence counterscreen assay for TRPML3 agonists: dose response cell-based high-throughput screening assay to identify agonists of the transient receptor potential channel N1 (TRPN1). [Related pubchem assays: 1526, 1424, 1448 ]; type: functional
Sequence of Ion channel NompC (Q7T1G6 whole entry): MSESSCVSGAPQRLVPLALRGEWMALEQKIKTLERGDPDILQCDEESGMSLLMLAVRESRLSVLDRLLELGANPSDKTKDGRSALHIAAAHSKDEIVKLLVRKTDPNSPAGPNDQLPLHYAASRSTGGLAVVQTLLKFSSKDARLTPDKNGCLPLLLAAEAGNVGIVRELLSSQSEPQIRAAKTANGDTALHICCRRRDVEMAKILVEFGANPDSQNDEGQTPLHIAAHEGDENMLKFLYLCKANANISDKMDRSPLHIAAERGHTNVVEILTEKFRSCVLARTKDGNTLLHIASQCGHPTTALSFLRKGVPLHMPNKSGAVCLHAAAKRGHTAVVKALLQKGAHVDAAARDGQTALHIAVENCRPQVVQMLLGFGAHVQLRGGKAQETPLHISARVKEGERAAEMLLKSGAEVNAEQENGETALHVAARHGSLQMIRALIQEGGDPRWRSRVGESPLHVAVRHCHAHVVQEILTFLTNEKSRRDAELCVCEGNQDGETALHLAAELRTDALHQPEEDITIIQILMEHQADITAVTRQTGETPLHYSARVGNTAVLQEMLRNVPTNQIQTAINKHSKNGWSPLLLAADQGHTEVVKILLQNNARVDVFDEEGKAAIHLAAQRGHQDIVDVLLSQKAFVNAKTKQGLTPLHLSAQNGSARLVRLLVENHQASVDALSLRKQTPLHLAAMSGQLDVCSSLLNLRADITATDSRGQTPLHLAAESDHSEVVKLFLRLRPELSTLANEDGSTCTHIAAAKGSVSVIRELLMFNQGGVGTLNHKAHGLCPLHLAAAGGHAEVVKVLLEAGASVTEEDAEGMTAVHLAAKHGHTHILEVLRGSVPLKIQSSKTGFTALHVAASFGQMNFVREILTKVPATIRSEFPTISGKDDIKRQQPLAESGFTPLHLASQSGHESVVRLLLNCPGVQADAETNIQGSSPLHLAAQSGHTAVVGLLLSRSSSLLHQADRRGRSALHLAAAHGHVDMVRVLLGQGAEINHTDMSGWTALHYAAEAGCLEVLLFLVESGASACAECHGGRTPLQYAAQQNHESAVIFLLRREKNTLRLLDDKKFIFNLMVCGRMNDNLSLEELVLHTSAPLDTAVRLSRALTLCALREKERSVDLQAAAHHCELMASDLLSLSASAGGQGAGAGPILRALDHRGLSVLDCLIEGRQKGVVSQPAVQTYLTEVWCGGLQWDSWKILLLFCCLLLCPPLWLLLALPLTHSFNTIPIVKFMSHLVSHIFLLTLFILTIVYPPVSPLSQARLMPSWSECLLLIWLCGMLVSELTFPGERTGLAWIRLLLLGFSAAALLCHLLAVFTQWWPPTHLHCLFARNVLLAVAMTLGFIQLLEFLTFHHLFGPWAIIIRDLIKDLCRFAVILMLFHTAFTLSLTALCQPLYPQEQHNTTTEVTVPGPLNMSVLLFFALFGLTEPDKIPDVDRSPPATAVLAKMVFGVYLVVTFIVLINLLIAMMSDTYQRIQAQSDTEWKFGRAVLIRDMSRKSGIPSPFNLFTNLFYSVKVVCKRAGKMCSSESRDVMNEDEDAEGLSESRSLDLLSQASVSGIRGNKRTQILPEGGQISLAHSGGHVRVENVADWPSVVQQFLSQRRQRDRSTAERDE

[3] = biological target: T2, Low molecular weight phosphotyrosine protein phosphatase; type: functional; details: read-out: IC50_Mean; remark: listed apart in the source
[4] = biological target: Hepatocyte nuclear factor 4-alpha (Homo sapiens, UniProt P41235); type: functional, cell-based;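 note: biochemical luminescence-based dose-response counterscreen measuring inhibition of HNF4 dimerization, run alongside a screen for blockers of ABHD5–perilipin-5 interaction; split luciferase complementation of HNF4 fusion proteins in cell lysate measuring dimerization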
Sequence of Hepatocyte nuclear factor 4-alpha (P41235 whole entry, the tested form may be a part): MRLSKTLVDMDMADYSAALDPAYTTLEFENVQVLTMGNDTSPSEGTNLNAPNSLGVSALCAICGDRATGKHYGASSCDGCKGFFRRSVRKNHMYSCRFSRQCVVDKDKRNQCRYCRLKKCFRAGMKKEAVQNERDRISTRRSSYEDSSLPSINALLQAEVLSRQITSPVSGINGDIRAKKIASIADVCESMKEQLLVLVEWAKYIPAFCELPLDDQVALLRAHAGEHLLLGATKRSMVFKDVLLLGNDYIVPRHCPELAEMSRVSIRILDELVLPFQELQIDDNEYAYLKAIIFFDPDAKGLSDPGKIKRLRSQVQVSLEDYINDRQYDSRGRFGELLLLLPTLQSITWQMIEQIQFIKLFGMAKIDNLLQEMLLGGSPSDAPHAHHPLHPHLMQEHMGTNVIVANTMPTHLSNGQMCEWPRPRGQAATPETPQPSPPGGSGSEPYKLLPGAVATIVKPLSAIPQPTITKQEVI

[5] = biological target: T3, Sentrin-specific protease 8 (Homo sapiens, UniProt Q96LD8); type: functional
T3 sequence (Q96LD8 whole entry): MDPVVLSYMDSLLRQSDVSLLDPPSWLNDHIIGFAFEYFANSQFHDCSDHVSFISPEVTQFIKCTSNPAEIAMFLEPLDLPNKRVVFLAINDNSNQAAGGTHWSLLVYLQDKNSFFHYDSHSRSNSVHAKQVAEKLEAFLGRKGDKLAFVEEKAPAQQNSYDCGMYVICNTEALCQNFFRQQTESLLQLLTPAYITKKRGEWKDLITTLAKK

[6] = biological target: T3, Sentrin-specific protease 8; type: functional; remark: listed apart in the source
[7] = biological target: T4, Mannose-6-phosphate isomerase (Homo sapiens, UniProt P34949); test: human PMI inhibitors, high substrate, primary screen, biochemical, fluorescence intensity, high mannose 6-phosphate (AID 1220)
T4 sequence (P34949 whole entry): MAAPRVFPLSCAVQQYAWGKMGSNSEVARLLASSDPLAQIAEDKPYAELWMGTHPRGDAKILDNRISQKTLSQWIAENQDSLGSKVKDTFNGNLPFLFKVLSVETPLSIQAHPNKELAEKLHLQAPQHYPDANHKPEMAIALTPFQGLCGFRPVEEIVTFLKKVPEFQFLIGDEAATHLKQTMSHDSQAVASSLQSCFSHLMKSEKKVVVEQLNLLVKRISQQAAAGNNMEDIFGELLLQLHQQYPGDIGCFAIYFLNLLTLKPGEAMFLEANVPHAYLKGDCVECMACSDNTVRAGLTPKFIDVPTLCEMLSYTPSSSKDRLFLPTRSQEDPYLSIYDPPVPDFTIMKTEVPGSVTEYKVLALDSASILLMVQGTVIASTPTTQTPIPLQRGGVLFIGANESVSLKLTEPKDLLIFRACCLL

[8] = AlphaScreen signal interference compounds, dose response, artefact control for ARNT-TACC3 interaction inhibitor project, biochemical, luminescence, cherry-pick (AID 651705); type: functional;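 note: AlphaScreen bead proximity signal that flags compounds interfering with the detection technology; potency reflects signal decrease which marks the compound as an assay artifact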
[9] = Artemis endonuclease inhibitor potency, dose response, biochemical, fluorescence intensity (AID 720701); type: functional;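 note: Artemis endonuclease enzyme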
[10] = biological target: ADP-ribosylation factor GTPase-activating protein 1 (Rattus norvegicus, UniProt Q62848); test: Fluorescence polarization-based biochemical high throughput dose response screening assay to identify inhibitors of ADP-ribosylation factor GTPase activating protein 1 (ARFGAP1).; type: functional
Sequence of ADP-ribosylation factor GTPase-activating protein 1 (Q62848 whole entry): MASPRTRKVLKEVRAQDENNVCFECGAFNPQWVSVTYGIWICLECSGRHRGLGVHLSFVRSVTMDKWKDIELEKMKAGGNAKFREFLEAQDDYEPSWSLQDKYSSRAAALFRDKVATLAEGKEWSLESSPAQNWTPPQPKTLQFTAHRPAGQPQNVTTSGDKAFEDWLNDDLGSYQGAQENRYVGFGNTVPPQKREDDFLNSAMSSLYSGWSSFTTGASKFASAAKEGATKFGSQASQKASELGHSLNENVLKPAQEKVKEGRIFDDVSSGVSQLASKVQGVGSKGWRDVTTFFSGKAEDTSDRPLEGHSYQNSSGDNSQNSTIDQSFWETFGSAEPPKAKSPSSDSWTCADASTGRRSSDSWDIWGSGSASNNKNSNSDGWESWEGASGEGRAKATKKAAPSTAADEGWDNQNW

[11] = biological target: T5, Aryl hydrocarbon receptor (Homo sapiens, UniProt P35869); details: Potency;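 note: confirmatory quantitative high-throughput screen measuring activation of the AhR signaling pathway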
T5 sequence (P35869 whole entry): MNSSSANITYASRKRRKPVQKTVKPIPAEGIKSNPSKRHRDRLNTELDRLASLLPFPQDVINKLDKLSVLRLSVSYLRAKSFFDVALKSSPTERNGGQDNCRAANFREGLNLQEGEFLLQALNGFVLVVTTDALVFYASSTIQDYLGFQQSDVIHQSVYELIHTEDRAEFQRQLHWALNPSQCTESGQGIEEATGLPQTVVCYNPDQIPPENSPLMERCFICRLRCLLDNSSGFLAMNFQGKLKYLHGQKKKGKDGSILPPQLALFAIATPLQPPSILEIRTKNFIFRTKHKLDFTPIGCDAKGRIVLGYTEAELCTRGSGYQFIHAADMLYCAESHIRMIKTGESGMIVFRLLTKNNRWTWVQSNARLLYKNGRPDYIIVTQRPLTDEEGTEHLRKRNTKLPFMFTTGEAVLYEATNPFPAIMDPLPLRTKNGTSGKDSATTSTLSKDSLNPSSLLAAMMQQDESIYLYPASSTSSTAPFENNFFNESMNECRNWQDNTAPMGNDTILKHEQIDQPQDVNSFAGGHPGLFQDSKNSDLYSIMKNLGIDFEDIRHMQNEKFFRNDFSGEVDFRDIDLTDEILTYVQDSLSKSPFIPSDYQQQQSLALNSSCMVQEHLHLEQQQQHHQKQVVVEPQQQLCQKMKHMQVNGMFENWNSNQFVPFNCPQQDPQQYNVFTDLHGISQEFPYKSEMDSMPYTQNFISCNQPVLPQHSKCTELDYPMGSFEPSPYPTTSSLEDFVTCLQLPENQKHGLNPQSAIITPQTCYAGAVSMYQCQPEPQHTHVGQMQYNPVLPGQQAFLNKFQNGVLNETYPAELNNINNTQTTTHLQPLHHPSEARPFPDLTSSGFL

P388 = test: cells; type: functional; details: Mus musculus
[12] = biological target: T6, Rac GTPase-activating protein 1 (Homo sapiens, UniProt Q9H0H5); test: MgcRacGAP GTPase-activating activity inhibitors, confirmation, biochemical, ADP Hunter fluorescence, primary and confirmatory (AID 624330); type: functional
T6 sequence (Q9H0H5 whole entry): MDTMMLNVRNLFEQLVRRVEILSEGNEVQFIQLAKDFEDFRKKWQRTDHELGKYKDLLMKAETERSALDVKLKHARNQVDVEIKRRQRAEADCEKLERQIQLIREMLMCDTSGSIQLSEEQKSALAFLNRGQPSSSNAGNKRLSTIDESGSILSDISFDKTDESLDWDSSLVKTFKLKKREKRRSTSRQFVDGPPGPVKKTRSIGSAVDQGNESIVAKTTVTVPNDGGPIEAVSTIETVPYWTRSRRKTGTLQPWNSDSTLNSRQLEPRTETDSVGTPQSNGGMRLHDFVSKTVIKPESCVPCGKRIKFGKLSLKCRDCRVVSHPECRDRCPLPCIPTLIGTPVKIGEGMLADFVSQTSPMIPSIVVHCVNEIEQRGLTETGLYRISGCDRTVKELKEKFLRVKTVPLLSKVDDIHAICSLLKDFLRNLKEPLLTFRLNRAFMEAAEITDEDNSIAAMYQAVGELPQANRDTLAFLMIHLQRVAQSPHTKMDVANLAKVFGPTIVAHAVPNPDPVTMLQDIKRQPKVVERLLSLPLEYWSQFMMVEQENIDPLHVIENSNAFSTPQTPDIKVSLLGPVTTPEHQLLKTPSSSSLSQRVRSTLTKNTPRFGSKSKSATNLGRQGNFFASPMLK

SN12K1 = test: cells; type: functional; details: Homo sapiens
P388/ADR = test: cells; type: functional; details: Mus musculus
[13] = biological target: T7, Small ubiquitin-related modifier 1 (Homo sapiens, UniProt P63165); test: inhibitors of SUMO1 partner interactions, dose response, biochemical, FRET (AID 624383); type: functional; details: read-out: IC50_Mean
T7 sequence (P63165 whole entry): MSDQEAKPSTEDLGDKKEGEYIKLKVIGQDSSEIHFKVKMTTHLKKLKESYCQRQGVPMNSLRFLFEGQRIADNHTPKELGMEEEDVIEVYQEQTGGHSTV

[14] = biological target: T7, Small ubiquitin-related modifier 1; test: inhibitors of SUMO1 peptide binding, dose response, biochemical, fluorescence polarization, uHTS hits (AID 624382); type: functional; details: read-out: IC50_Mean

Sequence of Mucolipin-3 (Q8TDD5 whole entry): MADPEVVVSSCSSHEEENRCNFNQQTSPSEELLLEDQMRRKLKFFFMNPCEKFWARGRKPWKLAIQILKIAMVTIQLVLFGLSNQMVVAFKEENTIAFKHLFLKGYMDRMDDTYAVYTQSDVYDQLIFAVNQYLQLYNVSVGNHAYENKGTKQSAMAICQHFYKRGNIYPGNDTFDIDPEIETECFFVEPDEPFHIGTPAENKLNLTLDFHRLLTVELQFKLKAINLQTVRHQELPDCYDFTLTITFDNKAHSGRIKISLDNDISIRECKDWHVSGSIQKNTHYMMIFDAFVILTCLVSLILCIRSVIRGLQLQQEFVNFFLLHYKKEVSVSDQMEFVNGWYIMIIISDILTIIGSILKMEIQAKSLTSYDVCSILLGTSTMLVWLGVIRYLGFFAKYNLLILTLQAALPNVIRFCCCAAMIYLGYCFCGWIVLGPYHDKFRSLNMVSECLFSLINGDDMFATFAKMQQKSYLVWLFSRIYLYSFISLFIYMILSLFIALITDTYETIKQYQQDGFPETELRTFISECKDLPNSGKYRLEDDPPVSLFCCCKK

For `O=C(O)c1csc(N/N=C/c2ccc(Br)cc2)n1`, the EC50 (Mucolipin-3) was > 29.9 µM (not active), the EC50 [1] was > 260 µM (inactive) and the IC50 [2] was > 80 µM (inactive). The EC50 (Ion channel NompC) was > 29.9 µM (not active) and the IC50 [3] was 47.3 µM (inactive).

In the case of `O=C(NCc1ccccc1)C(C1CC1)n1c(=O)c(-c2ccco2)nc2ccccc21` (centres undefined), the IC50 [4] is reported as 6.09 µM (active).

With `CC(C)(C)c1cc(=O)n(-c2ccccc2)[nH]1` the IC50 [5] was 19.1 µM (active), the IC50 [6] was 7.95 µM (active) and the IC50 [7] was > 50 µM (not active).

For `C/C(CC(=O)Nc1ccc(N(C)C)cc1)=N\NC(=O)c1ccccn1`, the AC50 [8] was 78 µM (active) and the IC50 [9] was > 20 µM (inactive).

In the case of `Cc1cc([N+](=O)[O-])c(C)cc1-c1ccc(/C=N/NC(=O)Cn2nnnc2N)o1`, the IC50 [10] is reported as 17.8 µM (inactive).

In the case of `O=c1oc2cc(O)ccc2c2oc3cc(O)ccc3c12` [COUMESTROL], the AC50 [11] is reported as 50.1 µM (inconclusive), the GI50 (P388) is reported as 27.4 µM (inactive) and the IC50 [12] is reported as 32.3 µM (active). For the same compound, the GI50 (SN12K1) was 50 µM (inactive), the GI50 (P388/ADR) was 26.2 µM (inactive) and the IC50 [13] was 14.7 µM (active). For the same compound, the IC50 [14] was > 66.6 µM (inactive).
